# Source: patent publication US10767187B2 (The State of Israel, Ministry of Agriculture & Rural …, priority 2016, dated 2020)
# Columns and labels:
# [1] = target: T1, MdPh-4′-OGT (Malus domestica, UniProt A7MAS5); experiment: Substrate specificity, sugar donor and cation dependence of purified recombinant MdPh-4′-OGT; assay type: biochemical, Malus x domestica; conditions: 50 μM substrate, 2 mM UDP-glucose, 500 ng enzyme, 1 hour, pH 7.5; LC-MS
# T1 construct: made in house; host or cells: E. coli BL21 (DE3)
# T1 sequence (A7MAS5 1-481): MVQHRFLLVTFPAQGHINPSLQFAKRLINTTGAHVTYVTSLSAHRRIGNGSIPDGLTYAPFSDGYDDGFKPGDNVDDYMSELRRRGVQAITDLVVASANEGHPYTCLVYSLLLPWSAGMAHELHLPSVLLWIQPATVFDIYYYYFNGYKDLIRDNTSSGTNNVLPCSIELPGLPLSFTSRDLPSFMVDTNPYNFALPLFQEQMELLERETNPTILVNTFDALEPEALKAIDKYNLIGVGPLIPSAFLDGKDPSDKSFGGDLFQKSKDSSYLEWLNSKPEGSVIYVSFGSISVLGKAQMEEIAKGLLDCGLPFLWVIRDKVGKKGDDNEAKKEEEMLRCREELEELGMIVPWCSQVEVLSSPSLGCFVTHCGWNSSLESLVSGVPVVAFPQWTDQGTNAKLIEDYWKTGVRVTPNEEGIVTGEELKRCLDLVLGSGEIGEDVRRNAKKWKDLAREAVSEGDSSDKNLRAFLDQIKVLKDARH
# Experimental: Substrates analyzed are indicated.
# (§1) Reactions were performed at 30° C. for 60 minutes and terminated by addition of 10 μL of 10% TCA (v/v). Two microliters of the reaction products were used for analysis and identification by LC-UV-MS. All assay series were carried out at least in triplicate.
# The analytical column was a Zorbax Extend-C18 Rapid Resolution HT column (2.1×50.0 mm, 1.8 μm, Agilent Technologies, Waldbronn, Germany). The gradient elution mobile phase consisted of H2O with 0.1% (v/v) formic acid (eluent A) and acetonitrile containing 0.1% (v/v) formic acid (eluent B). The column was equilibrated with 10% B for 1.5 minutes. […] The flow rate of the mobile phase was 0.3 ml/min and the column oven temperature was 40° C. Eluting compounds were subjected to a dual-sprayer orthogonal ESI source, with one sprayer for analytical flow and one for the reference compound (Agilent Technologies, Santa Clara, USA). The ESI source was operated in negative mode with the following settings: gas temp of 300° C. with a flow of 8 L/min and nebulizer set to 35 psig. VCap set to 3000 V, the fragmentor to −140 V and the skimmer to 65 V. Scan mode of the mass detector was applied (100-1700 m/z) with a rate of 1 spectra/sec. The [M-H] ions of target compounds were detected using the ‘find compound by formula’ function and analyzed by Masshunter qualitative and quantitative analysis software version B.07.00 (Agilent technologies). Compounds were identified by comparison of exact mass and retention time to purchased standards.
# [2] = tested on: Malus Ph-2′-OGT; experiment: Km for phloretin of Malus Ph-2′-OGT (literature) compared with MdPh-4′-OGT; assay type: biochemical; conditions: Gosch C. et al. (2010)
# [3] = target: T1, MdPh-4′-OGT; experiment: Kinetic parameters of His-tag purified recombinant MdPh-4′-OGT (standard glucosyltransferase enzyme assay, LC-MS); assay type: biochemical, Malus x domestica
# Experimental: as §1
# The UPLC-MS analysis was carried out on an Agilent 1290 Infinity series liquid chromatograph coupled with an Agilent 1290 Infinity DAD and Agilent 6224 Accurate Mass Time of Flight mass spectrometer (MS) (Agilent Technologies, Santa Clara, USA). The analytical column was a Zorbax Extend-C18 Rapid Resolution HT column (2.1×50.0 mm, 1.8 μm, Agilent Technologies, Waldbronn, Germany). The gradient elution mobile phase consisted of H2O with 0.1% (v/v) formic acid (eluent A) and acetonitrile containing 0.1% (v/v) formic acid (eluent B). The column was equilibrated with 10% B for 1.5 minutes. Eluent B was then increased to 95% till 12 minutes, and restored to 10% by 15 minutes. The flow rate of the mobile phase was 0.3 ml/min and the column oven temperature was 40° C. Eluting compounds were subjected to a dual-sprayer orthogonal ESI source, with one sprayer for analytical flow and one for the reference compound (Agilent Technologies, Santa Clara, USA). The ESI source was operated in negative mode with the following settings: gas temp of 300° C. with a flow of 8 L/min and nebulizer set to 35 psig. VCap set to 3000 V, the fragmentor to −140 V and the skimmer to 65 V. Scan mode of the mass detector was applied (100-1700 m/z) with a rate of 1 spectra/sec. The [M-H] ions of target compounds were detected using the ‘find compound by formula’ function and analyzed by Masshunter qualitative and quantitative analysis software version B.07.00 (Agilent technologies). Compounds were identified by comparison of exact mass and retention time to purchased standards.
# [4] = target: MdPGT1 (Malus domestica, UniProt B3TKC8); conditions: Jugde et al. (2008)
# [5] = target: T1, MdPh-4′-OGT; experiment: pH and temperature optima of MdPh-4′-OGT activity with phloretin and UDP-glucose; assay type: biochemical, Malus x domestica
# Experimental: as §1
# All data included represent an average of at least three independent experiments. Determination of the pH optima within the range of 4.0-10.0 by mixing the stock buffer of 0.5 M citric acid and 1 M dibasic sodium phosphate solutions (for pH 4.0-7.0) and Tris-HCl (for pH 8.0-10.0), and the temperature optima within the range of 20° C.-45° C.
molecule,measurement,setting,value
O=C1C[C@@H](c2ccc(O)cc2)Oc2cc(O)cc(O)c21 [naringenin],Activity / product formation with the compound as acceptor substrate,[1],formation of the corresponding naringenin-7-O-glucoside
O=C(/C=C/c1ccc(O)c(O)c1)c1ccc(O)cc1O [butein],Activity / product formation with the compound as acceptor substrate,[1],production of the corresponding O-glucoside
"O=C(CCc1ccc(O)cc1)c1c(O)cc(O[C@@H]2O[C@H](CO)[C@@H](O)[C@H](O)[C@H]2O)cc1O [trilobatin, 1-Propanone, 1-(4-(beta-D-glucopyranosyloxy)-2,6-dihydroxyphenyl)-3-(4-hydroxyphenyl)]",Activity / product formation with the compound as acceptor substrate,[1],production of the corresponding di-O-glucosides
O=c1c(O)c(-c2ccc(O)c(O)c2)oc2cc(O)cc(O)c12 [quercetin],Activity / product formation with the compound as acceptor substrate,[1],production of three different products
"O=C(CCc1ccc(O)cc1)c1c(O)cc(O)cc1O [Phloretin, 3-(4-hydroxyphenyl)-1-(2,4,6-trihydroxyphenyl)-1-propanone]","Km for phloretin, times higher than with MdPh-4′-OGT",[2],3 times
same,kcat,"[3]; named substrate varied, co-substrate fixed",9.94 ± 1.23 s^−1 (×10^−2)
same,Vmax,"[3]; named substrate varied, co-substrate fixed, 500 ng enzyme",1.86 ± 0.30 pkat μg^−1 protein
same,Vmax,"[3]; named substrate varied, co-substrate fixed, 500 ng enzyme, listed as phloretin",1.86±0.30 pkat μg^−1 protein
same,Km,"[3]; named substrate varied: phloretin 0.5-500 μM at 2 mM UDP-glucose, UDP-glucose 0.01-50 mM at 30 μM phloretin, 500 ng enzyme",26.1 ± 6.97 µM
same,"Km for phloretin, times lower than with MdPh-4′-OGT",[4],41 times
same,Activity / product formation with the compound as acceptor substrate,[1],highest activity
O=C(O)/C=C/c1ccc(O)c(O)c1 [caffeic acid],Activity / product formation with the compound as acceptor substrate,[1],no products were detected
O=C(O)/C=C/c1ccc(O)cc1 [4-coumaric acid],Activity / product formation with the compound as acceptor substrate,[1],no products were detected
"MdPh-4′-OGT: His-tagged recombinant apple glycosyltransferase that glycosylates phloretin with UDP-glucose to form trilobatin (protein, listed as Malus domestica, His tag, His-tagged recombinant apple glycosyltransferase that glycosylates phloretin with UDP-glucose to form trilobatin) MVQHRFLLVTFPAQGHINPSLQFAKRLINTTGAHVTYVTSLSAHRRIGNGSIPDGLTYAPFSDGYDDGFKPGDNVDDYMSELRRRGVQAITDLVVASANEGHPYTCLVYSLLLPWSAGMAHELHLPSVLLWIQPATVFDIYYYYFNGYKDLIRDNTSSGTNNVLPCSIELPGLPLSFTSRDLPSFMVDTNPYNFALPLFQEQMELLERETNPTILVNTFDALEPEALKAIDKYNLIGVGPLIPSAFLDGKDPSDKSFGGDLFQKSKDSSYLEWLNSKPEGSVIYVSFGSISVLGKAQMEEIAKGLLDCGLPFLWVIRDKVGKKGDDNEAKKEEEMLRCREELEELGMIVPWCSQVEVLSSPSLGCFVTHCGWNSSLESLVSGVPVVAFPQWTDQGTNAKLIEDYWKTGVRVTPNEEGIVTGEELKRCLDLVLGSGEIGEDVRRNAKKWKDLAREAVSEGDSSDKNLRAFLDQIKVLKDARH",Activation energy,[5]; calculated from temperature dependence,4.369 kcal/mol
same,Activity remaining at pH 6.0,[5]; pH 6.0,17%
same,Activity remaining at pH 10.0,[5]; pH 10.0,less than 5%
same,pH of maximum activity,[5]; pH range 4.0-10.0 tested,9.0 pH
same,pH range of significant activity,[5]; pH range 4.0-10.0 tested,7.0-9.0 pH
